From patent US20120220563A1, “Substituted piperidines” (BAYER PHARMA AKTIENGESELLSCHAFT, priority 2009, published 2012)

Test system: platelet aggregation in platelet-rich plasma triggered by thrombin receptor agonist (TRAP6, SFLLRN)
Assay: Platelet aggregation in plasma (TRAP6/SFLLRN-triggered, turbidimetry according to Born)
Assay type: cell-based
Details: Homo sapiens, 10 min, platelet-rich plasma of healthy volunteers, 10 min at 37° C. with test substance, concentration which inhibits aggregation by 50%
Protocol: To determine the platelet aggregation, blood from healthy volunteers of both genders, who had not received any platelet aggregation-influencing medication for the last ten days, is used. The blood is taken up into monovettes (Sarstedt, Nümbrecht, Germany) which contain, as anticoagulant, sodium citrate 3.8% (1 part of citrate+9 parts of blood). To obtain platelet-rich plasma, the citrated whole blood is centrifuged at 140 g for 20 min
For the aggregation measurements, aliquots of the platelet-rich plasma with increasing concentrations of test substance are incubated at 37° C. for 10 min. Subsequently, aggregation is triggered by addition of a thrombin receptor agonist (TRAP6, SFLLRN) in an aggregometer and determined at 37° C. by means of the turbidimetry method according to Born (Born, G. V. R., Cross M. J., The Aggregation of Blood Platelets; J. Physiol. 1963, 168, 178-195). The SFLLRN concentration leading to maximum aggregation is, if appropriate, determined individually for each donor.
To calculate the inhibitory effect, the maximum increase of light transmission (amplitude of the aggregation curve in %) is determined within 5 minutes after addition of the agonist in the presence and absence of test substance, and the inhibition is calculated. The inhibition curves are used to calculate the concentration which inhibits aggregation by 50%.

| SMILES | IC50 |
| --- | --- |
| CCOc1noc(C2CC(c3ccc(CC)c(F)c3)CN(C(=O)N3CCS(=O)(=O)CC3)C2)n1 (racemic) [Example 101, (1,1-Dioxidothiomorpholin-4-yl)[3-(3-ethoxy-1,2,4-oxadiazol-5-yl)-5-(4-ethyl-3-fluorophenyl)-piperidin-1-yl]methanone] | 300 pM |
| CCN(CC)c1noc(C2CC(c3ccc(C(F)(F)F)cc3)CN(C(=O)N3CCOCC3)C2)n1 (single isomer, unassigned) [Example 6, {3-[3-(Diethylamino)-1,2,4-oxadiazol-5-yl]-5-[4-(trifluoromethyl)phenyl]piperidin-1-yl}-(morpholin-4-yl)methanone] | 670 pM |
| CCc1ccc(C2CC(c3nc(OCCOC)no3)CN(C(=O)N3CCS(=O)(=O)CC3)C2)cc1 (single isomer, unassigned) [Example 63, (1,1-Dioxidothiomorpholin-4-yl){3-(4-ethylphenyl)-5-[3-(2-methoxyethoxy)-1,2,4-oxadiazol-5-yl]-piperidin-1-yl}-methanone] | 240 pM |
| CCOc1noc(C2CC(c3ccc(CC(F)(F)F)cc3)CN(C(=O)N3CC[S+]([O-])CC3)C2)n1 (single isomer, unassigned) [Example 66, {3-(3-Ethoxy-1,2,4-oxadiazol-5-yl)-5-[4-(2,2,2-trifluoroethyl)phenyl]piperidin-1-yl}(1-oxidothio-morpholin-4-yl)methanone] | 540 pM |
| CCOc1noc(C2CC(c3ccc(CC(F)(F)F)cc3)CN(C(=O)N3CCS(=O)(=O)CC3)C2)n1 (single isomer, unassigned) [Example 69, (1,1-Dioxidothiomorpholin-4-yl) {3-(3-ethoxy-1,2,4-oxadiazol-5-yl)-5-[4-(2,2,2-trifluoroethyl)-phenyl]piperidin-1-yl}methanone] | 250 pM |
